Measured values taken from paper PMC5824344 (ACS Chemical Biology, 2017).

Experiments:
[1] = tested on: GluI and GluII in primary human monocyte-derived macrophages (MDMΦ); assay: Free oligosaccharide (FOS) assay in primary monocyte-derived macrophages; assay type: cell-based; conditions: naive MDMΦ
Protocol: (§1) 5 Cell and Virus Culture and Assays
(§2) 5.1 Culture of Cell Lines
(§3) The human hepatoma cell line Huh7.5 (Apath, LLC) was cultured in Dulbecco’s modiﬁed Eagle medium (DMEM) with Glutamax (Gibco) supplemented with 100 µg mL−1 strepto-mycin (Sigma), 100 U mL−1 penicillin (Sigma), 100 µm MEM non-essential amino acids (Gibco) and 10% (volume/volume, v/v) heat-inactivated (56 ◦C, 30 min) fetal calf serum (FCS, Seralab). The human monocytic cell line HL60 (ATCC), human T lymphocyte cell line Jurkat (ATCC), and human B lymphocyte cell line Raji (ATCC) were each maintained in RPMI 1640 media with Glutamax (Gibco) supplemented with 100 µg mL−1 streptomycin, 100 U mL−1 penicillin and 10% (v/v) FCS. […]
(§4) Cell viability was measured using the CellTiter 96 R© AQueous One Solution Cell Prolifera-tion MTA (3-(4,5-dimethylthiazol-2-yl)-5-(3-carboxymethoxyphenyl)-2-(4-sulfophenyl)-2H - […]
(§5) After a further one to two hour incubation, the absorbance at 490 nm was measured on a Molecular Devices SpectraMax M5 microplate reader. […]
(§6) Absorbances were averaged across replicates, and corrected for background by subtracting the value for media-only wells. Each drug treatment was then evaluated as a percentage of untreated cells. […]
FOS analysis was carried out as described previously. […] Before purifying the FOS, each sample was analyzed for protein content using the modiﬁed Bradford assay. […]

Rat intestinal sucrase = biological target: T1, Rat intestinal sucrase (Rattus norvegicus, UniProt P23739); assay: Inhibition of rat intestinal sucrase (natural substrate, glucose release); assay type: biochemical; conditions: for IC50: isolated enzyme in vitro, mean of three measurements, read-out: IC50, α-Glucosidase, Rat intestinal sucrase
T1 construct: from tissue; host or cells: intestine of male Wistar rats, partially purified extract

[2] = biological target: T2, Rat intestinal isomaltase (Rattus norvegicus, UniProt P23739); assay: Inhibition of rat intestinal isomaltase (natural substrate, glucose release); assay type: biochemical; conditions: for IC50: isolated enzyme in vitro, mean of three measurements, read-out: IC50, α-Glucosidase, Rat intestinal isomaltase
T2 construct: from tissue; host or cells: intestine of male Wistar rats, partially purified extract
Protocol: (§7) 4 Enzyme Inhibition Assays
(§8) All rat enzymes were isolated from 18-week-old, male Wistar rats, while human lysosomal α-glucosidase was obtained in commercially available form from Sanoﬁ Genzyme. Inhibition of isolated glucosidases was evaluated as described previously. 3 Brieﬂy, maltase, isomaltase, sucrase, and cellobiase were used as partially puriﬁed tissue extracts. Inhibition assays for each enzyme were performed with the respective natural substrate, and release of d-glucose measured by Glucose B-test (Wako Diagnostics). Assays of rat ER α-glucosidase II and human lysosomal α-glucosidase inhibition were conducted with α-p-nitrophenylglucoside as substrate; 400 mm Na2CO3 was added to quench these reactions, and the extent of hydrolysis was evaluated as absorbance at 400 nm by spectrophotometer.
(§9) ER α-glucosidase I inhibition assays were performed using anthranilic acid-labelled Glc3Man7GlcNAc2 as substrate. After terminating the reaction with acetonitrile, protein was removed by cen-trifugation through a 10 kDa molecular weight cut oﬀ ﬁlter. The amount of hydrolysis was then quantiﬁed by normal phase high performance liquid chromatography analysis of unreacted substrate and product (Glc2Man7GlcNAc2).4
(§10) ER α-glucosidase II inhibition assays using native-like substrates were performed using an-thranilic acid-labelled Glc2Man7GlcNAc2 as substrate. After terminating the reaction with acetonitrile, protein was removed by centrifugation through a 10 kDa molecular weight cut oﬀ ﬁlter. The amount of hydrolysis was then quantiﬁed by normal phase high performance liq-uid chromatography analysis of unreacted substrate and both products (Glc1Man7GlcNAc2

Rat intestinal maltase = assay: Inhibition of rat intestinal maltase (natural substrate, glucose release); assay type: biochemical; conditions: for IC50: isolated enzyme in vitro, mean of three measurements, read-out: IC50, α-Glucosidase, Rat intestinal maltase
Protocol: as §7, §8, §9, §10

[3] = biological target: T3, Rat liver ER α-glucosidase II (Rattus norvegicus, UniProt A0A8I6GFL3); assay: Inhibition of isolated rat liver ER α-glucosidase II (α-p-nitrophenylglucoside substrate); assay type: biochemical; conditions: isolated enzyme in vitro; read-out: IC50 with regard to GluII
T3 construct: Rat liver ER, II; from tissue; host or cells: liver of male Wistar rats
Protocol: as §7, §8, §9, §10

[4] = tested on: GluI and GluII in human hepatoma Huh7.5 cells; assay: Free oligosaccharide (FOS) assay in Huh7.5 cells; assay type: cell-based; conditions: naive Huh7.5 cells, 48 h, 50 µm
Protocol: as §1, §2
as §3, with “FCS. The monkey kidney cell line LLC-MK2 (a gift from Armed Forces Research Institute of Medical Sciences, Thailand) was cultured in M199 media (Gibco) supplemented with 2 mm l-glutamine, 100 µg mL−1 streptomycin, 100 U mL−1 penicillin and 20% (v/v) FCS. Subsequently, these are referred to as growth media for each cell line. Unless otherwise indicated, all cell incubations were carried out at 37 ◦C and 5% CO2.” for “FCS.”
as §4, §5, §6
(§11) FOS analysis was carried out as described previously. […] Before purifying the FOS, each sample was analyzed for protein content using the modiﬁed Bradford assay. […] The labelled glycans were then analyzed by normal phase high performance liquid chromatography. Retention times and peak area were used to identify and quantify glycans, respectively, by comparison to standards of known identity and molar quantity. FOS quantities were normalized to protein levels.

[5] = tested on: GluI and GluII in HL60 (promyelocytic) cells; assay: Free oligosaccharide (FOS) assay in HL60 cells; assay type: cell-based, human; conditions: 48 h
Protocol: as §1, §2
The human hepatoma cell line Huh7.5 (Apath, LLC) was cultured in Dulbecco’s modiﬁed Eagle medium (DMEM) with Glutamax (Gibco) supplemented with 100 µg mL−1 strepto-mycin (Sigma), 100 U mL−1 penicillin (Sigma), 100 µm MEM non-essential amino acids (Gibco) and 10% (volume/volume, v/v) heat-inactivated (56 ◦C, 30 min) fetal calf serum (FCS, Seralab). The human monocytic cell line HL60 (ATCC), human T lymphocyte cell line Jurkat (ATCC), and human B lymphocyte cell line Raji (ATCC) were each maintained in RPMI 1640 media with Glutamax (Gibco) supplemented with 100 µg mL−1 streptomycin, 100 U mL−1 penicillin and 10% (v/v) FCS. The monkey kidney cell line LLC-MK2 (a gift from Armed Forces Research Institute of Medical Sciences, Thailand) was cultured in M199 media (Gibco) supplemented with 2 mm l-glutamine, 100 µg mL−1 streptomycin, 100 U mL−1 penicillin and 20% (v/v) FCS. Subsequently, these are referred to as growth media for each cell line. Unless otherwise indicated, all cell incubations were carried out at 37 ◦C and 5% CO2. All cells were maintained as mycoplasma free, with regular veriﬁcations by polymerase chain reaction (PCR).
5.2 Isolation and Culture of Primary Human MDMΦ
Primary human MDMΦ were generated from human monocytes isolated from buﬀy coats (NHS Blood and Transplant, surplus to clinical requirements) as described previously 5 and cultured in X-VIVO10 medium (Lonza) supplemented with 1% (v/v) heat-inactivated (56◦C, 30 min) autologous plasma. The use of human blood was approved by the NHS National Research Ethics Service (09/H0606/3).
as §4
tetrazolium, inner salt) Assay (Promega) according to the manufacturer’s instruction. Brieﬂy, cells were treated in triplicate either for 4 d (Huh7.5) or 2 d (all other cell types). […]
as §5, §6, §11

[6] = biological target: T4, human lysosomal α-glucosidase (Homo sapiens, UniProt P10253); assay: Inhibition of human lysosomal α-glucosidase (α-p-nitrophenylglucoside substrate); assay type: biochemical; conditions: for IC50: isolated enzyme in vitro, mean of three measurements, read-out: IC50, α-Glucosidase, Human lysosome
T4 construct: purchased Sanofi Genzyme

T1 sequence (P23739 whole entry): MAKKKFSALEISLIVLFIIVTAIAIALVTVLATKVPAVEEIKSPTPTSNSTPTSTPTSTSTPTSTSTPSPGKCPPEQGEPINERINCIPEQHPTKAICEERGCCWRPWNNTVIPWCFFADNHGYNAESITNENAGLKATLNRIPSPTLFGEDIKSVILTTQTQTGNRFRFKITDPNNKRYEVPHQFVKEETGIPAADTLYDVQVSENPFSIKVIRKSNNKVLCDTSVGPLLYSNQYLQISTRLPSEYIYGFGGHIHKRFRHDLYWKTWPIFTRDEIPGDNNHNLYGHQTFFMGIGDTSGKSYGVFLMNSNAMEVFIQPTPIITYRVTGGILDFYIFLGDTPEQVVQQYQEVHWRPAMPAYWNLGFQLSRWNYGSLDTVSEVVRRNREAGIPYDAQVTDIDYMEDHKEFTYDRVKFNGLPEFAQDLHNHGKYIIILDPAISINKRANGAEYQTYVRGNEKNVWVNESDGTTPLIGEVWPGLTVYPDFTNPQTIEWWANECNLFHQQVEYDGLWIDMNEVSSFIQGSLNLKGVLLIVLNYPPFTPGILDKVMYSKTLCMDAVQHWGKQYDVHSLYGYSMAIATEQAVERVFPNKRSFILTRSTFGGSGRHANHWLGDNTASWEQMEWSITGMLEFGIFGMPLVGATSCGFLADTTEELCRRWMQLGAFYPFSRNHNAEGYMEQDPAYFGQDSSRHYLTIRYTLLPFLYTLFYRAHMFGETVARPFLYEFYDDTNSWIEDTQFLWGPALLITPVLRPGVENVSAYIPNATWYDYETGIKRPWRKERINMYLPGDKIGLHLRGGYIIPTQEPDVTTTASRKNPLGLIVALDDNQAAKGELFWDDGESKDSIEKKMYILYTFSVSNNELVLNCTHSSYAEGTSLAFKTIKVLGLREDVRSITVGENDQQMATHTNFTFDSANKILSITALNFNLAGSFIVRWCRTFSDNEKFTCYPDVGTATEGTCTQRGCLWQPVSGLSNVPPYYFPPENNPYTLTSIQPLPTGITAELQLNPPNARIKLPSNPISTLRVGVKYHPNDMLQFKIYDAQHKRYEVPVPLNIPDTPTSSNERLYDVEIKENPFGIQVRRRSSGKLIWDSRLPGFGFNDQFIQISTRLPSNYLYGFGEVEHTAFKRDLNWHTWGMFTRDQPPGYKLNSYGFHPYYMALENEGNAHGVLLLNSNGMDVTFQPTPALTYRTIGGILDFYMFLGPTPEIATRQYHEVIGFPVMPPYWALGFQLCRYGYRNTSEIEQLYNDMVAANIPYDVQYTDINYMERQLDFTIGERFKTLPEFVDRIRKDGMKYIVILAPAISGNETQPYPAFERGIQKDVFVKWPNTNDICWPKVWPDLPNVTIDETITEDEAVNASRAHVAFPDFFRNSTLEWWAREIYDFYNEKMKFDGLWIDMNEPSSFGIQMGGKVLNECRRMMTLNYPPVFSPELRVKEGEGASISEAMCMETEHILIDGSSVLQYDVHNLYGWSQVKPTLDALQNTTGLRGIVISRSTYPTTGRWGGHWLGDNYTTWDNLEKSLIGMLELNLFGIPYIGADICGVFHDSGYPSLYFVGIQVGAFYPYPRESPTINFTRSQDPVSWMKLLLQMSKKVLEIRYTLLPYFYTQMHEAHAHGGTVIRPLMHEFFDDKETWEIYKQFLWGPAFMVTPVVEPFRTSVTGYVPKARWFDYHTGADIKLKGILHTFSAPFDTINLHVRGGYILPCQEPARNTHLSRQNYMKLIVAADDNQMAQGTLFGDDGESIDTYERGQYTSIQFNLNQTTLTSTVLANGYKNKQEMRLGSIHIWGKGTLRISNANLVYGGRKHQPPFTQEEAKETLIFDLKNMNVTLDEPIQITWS
T2 sequence (P23739 whole entry): as above
T3 sequence (A0A8I6GFL3 33-944): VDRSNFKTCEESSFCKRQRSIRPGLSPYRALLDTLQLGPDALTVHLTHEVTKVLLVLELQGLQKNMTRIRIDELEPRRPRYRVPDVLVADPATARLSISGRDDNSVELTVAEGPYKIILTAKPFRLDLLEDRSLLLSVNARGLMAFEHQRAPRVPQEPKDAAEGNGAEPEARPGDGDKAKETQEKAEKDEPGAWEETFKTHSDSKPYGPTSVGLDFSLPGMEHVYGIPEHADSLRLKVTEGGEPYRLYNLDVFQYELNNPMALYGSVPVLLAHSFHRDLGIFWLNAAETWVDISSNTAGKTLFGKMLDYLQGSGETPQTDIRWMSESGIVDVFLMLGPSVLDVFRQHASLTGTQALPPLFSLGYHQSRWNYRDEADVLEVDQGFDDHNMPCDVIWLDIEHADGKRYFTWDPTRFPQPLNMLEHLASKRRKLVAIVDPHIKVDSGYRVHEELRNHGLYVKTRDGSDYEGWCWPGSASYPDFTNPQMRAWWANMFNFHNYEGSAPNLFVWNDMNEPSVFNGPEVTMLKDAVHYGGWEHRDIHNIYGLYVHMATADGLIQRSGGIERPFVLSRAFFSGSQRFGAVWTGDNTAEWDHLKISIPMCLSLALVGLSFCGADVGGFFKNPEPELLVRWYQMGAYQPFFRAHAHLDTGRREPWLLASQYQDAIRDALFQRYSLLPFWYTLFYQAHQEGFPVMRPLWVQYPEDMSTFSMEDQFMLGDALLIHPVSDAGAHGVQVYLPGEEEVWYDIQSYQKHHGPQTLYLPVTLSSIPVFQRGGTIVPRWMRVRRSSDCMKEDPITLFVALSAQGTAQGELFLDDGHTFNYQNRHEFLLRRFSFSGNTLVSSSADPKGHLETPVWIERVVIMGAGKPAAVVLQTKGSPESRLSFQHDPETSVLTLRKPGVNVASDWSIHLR
T3 sequence (A0A8I6ADW9 1-525 partner): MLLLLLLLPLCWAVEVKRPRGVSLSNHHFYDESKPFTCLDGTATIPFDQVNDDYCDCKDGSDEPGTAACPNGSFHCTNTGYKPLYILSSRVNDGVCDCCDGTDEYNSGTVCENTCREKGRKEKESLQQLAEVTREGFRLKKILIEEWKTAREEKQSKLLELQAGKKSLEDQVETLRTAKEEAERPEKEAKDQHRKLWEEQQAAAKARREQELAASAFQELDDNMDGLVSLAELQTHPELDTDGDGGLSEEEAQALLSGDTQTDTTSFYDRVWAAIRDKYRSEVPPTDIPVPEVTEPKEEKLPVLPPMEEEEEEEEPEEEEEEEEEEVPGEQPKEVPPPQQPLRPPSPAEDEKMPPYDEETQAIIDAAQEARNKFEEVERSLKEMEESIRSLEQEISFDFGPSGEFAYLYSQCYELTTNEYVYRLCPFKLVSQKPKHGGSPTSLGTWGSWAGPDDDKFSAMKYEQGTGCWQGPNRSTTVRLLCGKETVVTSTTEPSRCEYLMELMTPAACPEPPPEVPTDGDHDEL

Structure (SMILES)	glucosylated free oligosaccharides (FOS) observed after treatment [1]	inhibition at 50 µM (Rat intestinal sucrase; 50 μM, read-out: inhibition of intestinal sucrase at the maximum tested concentration)	IC50 (Rat intestinal sucrase)	inhibition at 50 µM ([2]; 50 μM, read-out: inhibition of intestinal isomaltase at the maximum tested concentration)	IC50 [2]	inhibition of intestinal maltase at the maximum tested concentration (Rat intestinal maltase; 50 μM)	IC50 (Rat intestinal maltase)	IC50 [3]	glucosylated free oligosaccharides (FOS) observed after treatment [4]	glucosylated free oligosaccharides (FOS) observed after treatment ([4]; listed as ToP-DNJ 4)	glucosylated free oligosaccharides (FOS) observed after treatment ([5]; 10 µm)	glucosylated free oligosaccharides (FOS) observed after treatment ([5]; 50 µm)	glucosylated free oligosaccharides (FOS) observed after treatment ([5]; 50 µm, listed as ToP-DNJ 4)	inhibition at 50 µM ([6]; 50 μM, read-out: inhibition of lysosomal glucosidase at the maximum tested concentration)	IC50 [6]
Cc1c(C)c2c(c(C)c1OCCCCCN1CC(O)C(O)C(O)C1CO)CCC(C)(CCCC(C)CCCC(C)CCCC(C)C)O2 (centres unmarked) [Compound 4, 5′-tocopheroxypentyl-DNJ]	Only monoglucosylated FOS accumulated	< 50%	> 50 µM	< 50%	> 50 µM	less than 50%	> 50 µM	9 µM	no glucosylated FOS were observed	no glucosylated FOS were detected	did not	detected	production of monoglucosylated FOS	< 50%	> 50 µM
CCCCN1CC(O)C(O)C(O)C1CO [Compound 2, N-butyl-D-1-deoxynojirimycin, reference compound]	mono- and triglucosylated FOS were observed		0.43 µM		1.6 µM		1.7 µM	13 µM	inhibits both enzymes		produced glucosylated FOS				2.1 µM
